Assay results published in US20140094424A1, “MICROBICIDAL COMPOSITIONS AND METHODS OF PRODUCTION USE THEREOF” (priority 2011, published 2014).

Assays:
Gram positive rods (S) = assay: MBC (minimum bactericidal concentration) test in Wash NEXT reagent; format: cell-based
Description: (§1) The stock organisms were thawed and subbed prior to beginning the MBC test. Molds were subbed to SDA plates one week before, and the bacteria were subbed to TAT agar plates 24 hours prior to the start of the test. All plates were incubated at 32 degrees C.
(§2) Each bacterial organism was inoculated into 40 ml sterile saline in a centrifuge tube to create a density of MacFarland #1. Two serial dilutions of 1:100 were then made, resulting in 10^−2 and 10^−4 concentrations. Each dilution was vortexed before it was sampled, and sterile Eppendorf pipette tips were used to make each transfer. The 10^−4 dilution was spiral plated to yield the initial inoculum concentration.
(§3) MBC trays were set up with the prepared test reagent. Using a Matrix pipettor, 100 μl aliquots of reagent were distributed into the wells, diluting the amount of preservative from 100% to 10% increments, using unpreserved reagent as the diluent. In one row, 100% non-preserved reagent acted as a positive control and served as a benchmark for a full mat of growth. In well #12H, 100 μl unpreserved reagent was pipetted, and this well was not inoculated with organisms, as it served as the negative control. Once all of the trays were prepared, the prepared bacteria/mold suspensions were poured into the MBC inoculating trays. These were placed onto the reagent trays, and 0.01 ml inoculum was introduced into the 100 μl of reagent in each well.
(§4) This was done by dipping a sterile cotton swab into each well, and absorbing all of the liquid in the well. The swab was rolled onto a TAT agar plate ensuring that the entire swab touches the agar. Plates ware incubated at 32 degrees C. for 48 hours to 7 days, depending on the organism. Observations for growth were performed by a scoring matrix using + for a full mat, +/− for some growth, a numerical value for an actual colony count, and—for no growth.
(§5) Below are tables that contain the data obtained in Example 1. The MBC test is scored by (+) indicating a full grown mat of organisms, equivalent to the organisms in the unpreserved reagent. (+/−) indicates there is some kill evident disturbing that mat or bringing the quantities down to an almost countable level. An actual number is the actual number of colonies growing at that concentration of preservative. (−) indicates no growth found. The MBC trays were stored at room temperature for the entire test.
(§6) The materials and methods and analysis of the MBC test were the same as in Example 1.

Pseudomonas putida (K) = assay: as above; format: cell-based
Description: as §1, §2, §3, §4, §5, §6

Measured: MBC test growth score

gentamicin
−: Gram positive rods (S); 10% preservative, 8 hour | Gram positive rods (S); 10% preservative, 24 hour | Gram positive rods (S); 10% preservative, 48 hour | Gram positive rods (S); 10% preservative, 72 hour | Gram positive rods (S); 20% preservative, 8 hour | Gram positive rods (S); 20% preservative, 24 hour | Gram positive rods (S); 20% preservative, 48 hour | Gram positive rods (S); 20% preservative, 72 hour | Gram positive rods (S); 30% preservative, 8 hour | Gram positive rods (S); 30% preservative, 24 hour | Gram positive rods (S); 30% preservative, 48 hour | Gram positive rods (S); 30% preservative, 72 hour | Gram positive rods (S); 40% preservative, 8 hour | Gram positive rods (S); 40% preservative, 24 hour | Gram positive rods (S); 40% preservative, 48 hour | Gram positive rods (S); 40% preservative, 72 hour | Gram positive rods (S); 50% preservative, 8 hour | Gram positive rods (S); 50% preservative, 24 hour | Gram positive rods (S); 50% preservative, 48 hour | Gram positive rods (S); 50% preservative, 72 hour | Gram positive rods (S); 60% preservative, 8 hour | Gram positive rods (S); 60% preservative, 24 hour | Gram positive rods (S); 60% preservative, 48 hour | Gram positive rods (S); 60% preservative, 72 hour | Gram positive rods (S); 70% preservative, 8 hour | Gram positive rods (S); 70% preservative, 24 hour | Gram positive rods (S); 70% preservative, 48 hour | Gram positive rods (S); 70% preservative, 72 hour | Gram positive rods (S); 80% preservative, 8 hour | Gram positive rods (S); 80% preservative, 24 hour | Gram positive rods (S); 80% preservative, 48 hour | Gram positive rods (S); 80% preservative, 72 hour | Gram positive rods (S); 90% preservative, 8 hour | Gram positive rods (S); 90% preservative, 24 hour | Gram positive rods (S); 90% preservative, 48 hour | Gram positive rods (S); 90% preservative, 72 hour | Gram positive rods (S); 100% preservative, 8 hour | Gram positive rods (S); 100% preservative, 24 hour | Gram positive rods (S); 100% preservative, 48 hour | Gram positive rods (S); 100% preservative, 72 hour | Pseudomonas putida (K); 10% preservative, 8 hour | Pseudomonas putida (K); 10% preservative, 24 hour | Pseudomonas putida (K); 10% preservative, 48 hour | Pseudomonas putida (K); 10% preservative, 72 hour | Pseudomonas putida (K); 20% preservative, 8 hour | Pseudomonas putida (K); 20% preservative, 24 hour | Pseudomonas putida (K); 20% preservative, 48 hour | Pseudomonas putida (K); 20% preservative, 72 hour | Pseudomonas putida (K); 30% preservative, 8 hour | Pseudomonas putida (K); 30% preservative, 24 hour | Pseudomonas putida (K); 30% preservative, 48 hour | Pseudomonas putida (K); 30% preservative, 72 hour | Pseudomonas putida (K); 40% preservative, 8 hour | Pseudomonas putida (K); 40% preservative, 24 hour | Pseudomonas putida (K); 40% preservative, 48 hour | Pseudomonas putida (K); 40% preservative, 72 hour | Pseudomonas putida (K); 50% preservative, 8 hour | Pseudomonas putida (K); 50% preservative, 24 hour | Pseudomonas putida (K); 50% preservative, 48 hour | Pseudomonas putida (K); 50% preservative, 72 hour | Pseudomonas putida (K); 60% preservative, 8 hour | Pseudomonas putida (K); 60% preservative, 24 hour | Pseudomonas putida (K); 60% preservative, 48 hour | Pseudomonas putida (K); 60% preservative, 72 hour | Pseudomonas putida (K); 70% preservative, 8 hour | Pseudomonas putida (K); 70% preservative, 24 hour | Pseudomonas putida (K); 70% preservative, 48 hour | Pseudomonas putida (K); 70% preservative, 72 hour | Pseudomonas putida (K); 80% preservative, 8 hour | Pseudomonas putida (K); 80% preservative, 24 hour | Pseudomonas putida (K); 80% preservative, 48 hour | Pseudomonas putida (K); 80% preservative, 72 hour | Pseudomonas putida (K); 90% preservative, 8 hour | Pseudomonas putida (K); 90% preservative, 24 hour | Pseudomonas putida (K); 90% preservative, 48 hour | Pseudomonas putida (K); 90% preservative, 72 hour | Pseudomonas putida (K); 100% preservative, 8 hour | Pseudomonas putida (K); 100% preservative, 24 hour | Pseudomonas putida (K); 100% preservative, 48 hour | Pseudomonas putida (K); 100% preservative, 72 hour
